# Test results from patent US12239650B2, “Compounds for treating and preventing net associated complications” (The Australian National University, priority 2019, dated 2025).
# Read-outs that look alike come from different tables or passages of the source.
# Key:
# [1] = tested on: histones; assay: In-vivo histone toxicity assay; conditions: mice; for Protection from histone-induced liver damage, generalised tissue injury and kidney failure (circulating ALT, LDH, creatinine): compound i.p. 10 min prior to i.v. histones 50 mg kg^−1, blood 4 h post-histones, concentration-dependent
# Experimental: In-vivo histone toxicity assays. BALB/c female mice (5-6 weeks of age), that are more prone to histone-induced anemia and easier to inject i.v. at this young age than C57BL/6 mice, were injected i.p. with test compounds at concentrations indicated 10 min prior to i.v. injection of histones (50 mg kg^−1) in phosphate buffered saline. Retro-orbital bleeds were performed with glass Pasteur pipettes 10 min after histone injection and collected blood added to acid citrate dextrose (ACD), the 10 min blood sample being subjected to hematologic analyses for platelet and erythrocyte content using an ADVIA 2120i Hematology Analyzer. Spleens were also harvested at 10 min post-histone injection and splenic hemoglobin content quantified using a hemoglobin assay kit (Sigma-Aldrich). In the case of 4 h blood samples, male C57/BL/6 mice (6-8 weeks of age) were injected with test compounds and histones as above and plasma isolated and stored frozen for subsequent biochemical testing, with markers for liver (alanine aminotransferase, ALT), kidney (creatinine, Crea) and general tissue (lactate dehydrogenase, LDH) damage being determined by the Department of Pathology, The Canberra Hospital.
# [2] = tested on: histone-induced platelet aggregation; assay: Histone-induced aggregation of isolated platelets; assay type: cell-based, human; conditions: histones 150 μg/mL, isolated platelets, FIG. 4b
# Experimental: In vitro platelet aggregation and degranulation assays. For aggregation studies platelets were isolated from human whole blood collected into Na-citrate vacutainers through 2-step centrifugation at room temperature (200×g for 20 min then the platelet-rich plasma 800×g for 15 min), the platelet pellet resuspended in Hank's balanced salt solution containing calcium and magnesium and histones added and incubated in the presence/absence of compounds at the concentrations of each as indicated. Samples were assessed for degree of platelet aggregation after 15 min exposure to histones by flow cytometry using the characteristic log FSC versus log SSC identification of platelets, with increases in the geometric mean of log FSC indicative of platelet aggregation.
# [3] = tested on: histone-mediated cytotoxicity for HMEC-1; assay: Histone-mediated cytotoxicity assay (PI/Calcein-AM flow cytometry); assay type: cell-based
# Experimental: Histone-mediated cytotoxicity assays. To determine the cytotoxicity of calf thymus histones (Sigma-Aldrich), various concentrations of histones (100-800 μg ml^−1) were added to suspensions of HMEC-1 or HUVEC (1×10^6 ml^−1) in 96 well plates and incubated for 1 h at 37° C. Cells were then incubated for 5 min at 37° C. with propidium iodide (PI; 2.5 μg ml^−1) (ThermoFisher Scientific), to detect dead cells, and Calcein-AM (0.04 μM) (ThermoFisher Scientific), to detect viable cells, placed on ice and the percentage of dead and viable cells determined by flow cytometry using gating strategies. In inhibition assays, HMEC-1 were incubated with histones (400 μg ml^−1) for 1 h at 37° C. in the presence of different concentrations of compounds (12.5-400 μg ml^−1) prior to the addition of PI and Calcein-AM. HMEC-1 cytotoxicity at each compound concentration was then determined based on the formula:
# [formula] and the IC50 value for each polyanion then determined based on the line of best fit (nonlinear regression analysis) using Prism Software (Graphpad Software). In all assays MTS (IC50 30 μg ml^−1) was included as a standard to compensate for experimental variation, with data being adjusted in each assay to MTS having an IC50 of 30 μg ml^−1.
# [4] = Rat ischemia reperfusion tissue (skin) flap model; assay type: in vivo; conditions: rat skin flap IRI, 50 mg kg^−1 i.p., 72 h, FIG. 7d
# Source text: Rat ischemia reperfusion tissue flap model. The procedure employed is largely based on a previously described method (Bone, R. C. et al. Definitions for sepsis and organ failure and guidelines for the use of innovative therapies in sepsis. The ACCP/SCCM Consensus Conference Committee. American College of Chest Physicians/Society of Critical Care Medicine. Chest 101, 1644-1655 (1992)). Briefly, male Wistar rats were anaesthetized, locally depilated and a 3 cm by 6 cm fasciocutaneous flap was excised leaving the vascular pedicle intact. […] The clamp was removed 10 h post-application permitting returned blood flow to the flap. Test compounds (50 mg kg^−1) or saline were administered i.p. 5 min prior to clamp application and 5 min following its removal. The rats were monitored for a total experimental period of 72 h during which rats received additional compound or saline i.p. at 24 and 48 h post-op. The ‘Control No Clamp’ rats had the tissue flap excised and rubber placed underneath prior to re-suturing, however, the vessel was not clamped and they received saline at the same time points as the other rats. At the end of the experimental period the viability of the flaps was determined by the percentage of black necrotic or reddened areas versus pink viable areas. […]
# [5] = tested on: histone-mediated RBC aggregation; assay: Histone-mediated erythrocyte aggregation (flow cytometry, scanning EM); assay type: cell-based, human
# Experimental: (§1) Human erythrocytes (RBC) were incubated for 1 h at 37° C. alone (‘Saline’ control) or in the presence of histones (400 μg ml^−1) with or without mCBS (200 μg ml^−1). a, Percentage of RBC aggregation measured by flow cytometry based on forward (FSC) and side (SSC) scatter parameters and an appropriate gating strategy to discriminate aggregated from normal (non-aggregated) RBC. b, Scanning electron micrographs depicting level of RBC aggregation at low and high magnification following the three treatments depicted in (a). c, Concentration dependent inhibition of histone-mediated RBC aggregation by mCBS and MTS, in this case RBC aggregation being calculated by flow cytometry as fold increase in RBC auto-fluorescence relative to RBC in the absence of histones. The fold increase values also provide an estimate of the number of RBC in each aggregate. d, Retention of RBC in an artificial spleen that measures RBC deformability. RBC were incubated with increasing concentrations of histones for 1 h and, at the highest concentration used (400 μg ml^−1), also incubated with either mCBS or MTS (100 and 200 μg ml^−1), prior to passage through the artificial spleen. Data are mean±s.e.m. (n=3 biological replicates). ***P<0.001, ****P<0.0001 (one way ANOVA with Dunnett's multiple comparisons test).
# In vitro erythrocyte microscopy, aggregation, fragility and deformability assays. […] J Biol Chem 289, 19531-19537 (2014)). Similarly, erythrocyte fragility induced by histones, in the presence or absence of inhibitors, was quantified using a sheer stress assay that we developed recently (Kordbacheh, F., O'Meara, C. H., Coupland, L. A., Lelliott, P. M. & Parish, C. R. Extracellular histones induce erythrocyte fragility and anemia. Blood 130, 2884-2888 (2017)). Finally, the reduced deformability of erythrocytes in the presence of histones and the effect of inhibitors on this process was assessed by measuring the passage of erythrocytes through an artificial human spleen (Kordbacheh, F., O'Meara, C. H., Coupland, L. A., Lelliott, P. M. & Parish, C. R. Extracellular histones induce erythrocyte fragility and anemia. Blood 130, 2884-2888 (2017); and Deplaine, G. et al. The sensing of poorly deformable red blood cells by the human spleen can be mimicked in vitro. Blood 117, e88-95 (2011)).
# [6] = tested on: histone-induced erythrocyte rigidity; assay: Erythrocyte deformability, passage through artificial spleen; assay type: cell-based, human; conditions: histones 400 μg ml^−1, compounds 100 and 200 μg ml^−1, FIG. 3d
# Experimental: as §1, with “RBC were incubated with increasing concentrations of histones for 1 h and, at the highest concentration used (400 μg ml^−1), also incubated with either mCBS or MTS (100 and 200 μg ml^−1), prior to passage through the artificial spleen. Data are mean±s.e.m. (n=3 biological replicates). ***P<0.001, ****P<0.0001 (one way ANOVA with Dunnett's multiple comparisons test).” left out
# In vitro erythrocyte microscopy, aggregation, fragility and deformability assays. […] Similarly, erythrocyte fragility induced by histones, in the presence or absence of inhibitors, was quantified using a sheer stress assay that we developed recently (Kordbacheh, F., O'Meara, C. H., Coupland, L. A., Lelliott, P. M. & Parish, C. R. Extracellular histones induce erythrocyte fragility and anemia. Blood 130, 2884-2888 (2017)). […]
# [7] = tested on: anti-proliferative effect of histones on HMEC-1; assay: HMEC-1 proliferation (3H-thymidine) after histone exposure; assay type: cell-based, human; conditions: compounds 100 μg ml^−1, histones 400 μg ml^−1, FIG. 8b
compound,measurement,setting,value
OC[C@H]1O[C@@H](O[C@H]2[C@H](O)[C@@H](O)[C@H](O)O[C@@H]2CO)[C@H](O)[C@@H](O)[C@@H]1O [CB],"Protection from histone-induced liver damage, generalised tissue injury and kidney failure (circulating ALT, LDH, creatinine)",[1]; FIG. 6a,inactive
same,Inhibition of histone-induced platelet aggregation,[2],non-inhibitory
O=S(=O)(O)OC[C@H]1OC(OS(=O)(=O)O)[C@H](OS(=O)(=O)O)[C@@H](OS(=O)(=O)O)[C@@H]1OS(=O)(=O)O (some centres unmarked) [glucose per-O-sulfate],Inhibition of histone-mediated cytotoxicity for HMEC-1 (endothelial cells),[3],little or no inhibitory activity
CO[C@@H]1O[C@H](COS(=O)(=O)O)[C@@H](OS(=O)(=O)O)[C@H](OS(=O)(=O)O)[C@H]1OS(=O)(=O)O [methyl β-glucoside per-O-sulfate],Inhibition of histone-mediated cytotoxicity for HMEC-1 (endothelial cells),"[3]; compared with heparin, FIG. 2a",little or no inhibitory activity
β-O-methyl cellobioside sulfate [mCBS],Histone-induced thrombocytopenia and anaemia,"[1]; 100 mg kg^−1 i.p., 10 min post-histones, FIG. 6b",prevented
same,Relative potency in protecting from histone-induced tissue pathologies,[1]; FIG. 6a,equally active
same,"Protection from histone-induced liver damage, generalised tissue injury and kidney failure (circulating ALT, LDH, creatinine)",[1]; FIG. 6a,protected
same,Viable area of the skin flap,[4],consistently and significantly increased
same,Prevention of histone-mediated RBC aggregation (auto-fluorescence),"[5]; histones 400 μg ml^−1, FIG. 3c",prevented aggregation in a concentration dependent manner
same,Inhibition of histone-induced erythrocyte aggregation (FSC/SSC),"[5]; histones 400 μg ml^−1, mCBS 200 μg ml^−1, 1 h 37° C., FIG. 3a, confirmed by scanning EM",completely inhibited
same,Inhibition of histone-mediated cytotoxicity for HMEC-1 (endothelial cells),"[3]; compared with heparin, FIG. 2a",as effective as heparin
same,Inhibition of histone-induced platelet aggregation,[2],completely inhibited
same,Ability of erythrocytes to passage through an artificial spleen,[6],totally restored
same,Neutralization of anti-proliferative effect of histones on HMEC-1 monolayers,[7],completely neutralized
